Experimental data published in patent US6673937B2, “Syntheses and methods of use of new antimitotic agents” (The University of Pittsburgh, priority 2000, dated 2004).

Assays:
bovine brain tubulin [1] = test: GTP-induced tubulin assembly (turbidity); format: biochemical; conditions: 40 μM
Procedure: Tubulin without microtubule-associated proteins was isolated from fresh bovine brains (Hamel E and Lin CM (1984). Separation of active tubulin and microtubule-associated proteins by ultracentrifugation and isolation of a component causing the formation of microtubule bundles. Biochemistry 23:4173-4184). Inhibition of assembly reactions was carried out as described previously (Verdier-Pinard P, Lai J-Y, Yoo H-D, Yu J, Marquez B, Nagle DG, Nambu M, White JD, Falck JR, Gerwick WH, Day BW and Hamel E (1998) Structure-activity analysis of the interaction of curacin A, the potent colchicine site antimitotic agent, with tubulin and effects of analogs on the growth of MCF-7 breast cancer cells. Mol Pharmacol 53:62-76.).
The inventors examined the ability of SR-7 to alter tubulin polymerization or depolymerization in vitro. FIG. 28, Panel A. Compounds (predissolved in DMSO) were preincubated with tubulin containing monosodium glutamate at 30 ° C. for 15 min. Samples were cooled to 0 ° C. and GTP was added. Samples were placed in a temperature-controlled multi-cuvette holder of a spectrophotometer held at 0 ° C. Baselines were established and temperature was rapidly raised to 30 ° C. Turbidity development in the cuvettes was measured at 350 nm. FIG. 28, Panel B. Compounds were added to the tubulin plus monosodium glutamate mixture at 0 ° C., placed in the spectrophotometer and temperature was raised to 30 ° C. Addition of 0.4 mM GTP to isolated bovine brain tubulin produced robust polymerization that began to plateau approximately 20 min after microtubule assembly commenced (Panel A).

[2] = tested on: mouse embryonic fibroblasts transformed with SV40 large T antigen; test: Proliferation of SV40 transformed mouse embryonic fibroblasts; format: cell-based; conditions: Mus musculus, Fibroblast; data not shown; read-out: concentration required to inhibit growth by 50%
Procedure: Two compounds, 24 referred to herein as SR-4 and 27 referred to herein as SR-7, were examined in greater detail as to their effects on biological activity. The proliferation of MCF-7, MDA-MB-231 and SV40 transformed mouse embryonic fibroblasts was measured by a previously described colorimetric assay (Wipf P, Jung J-K, Rodriguez S, Lazo JS Synthesis and biological evaluation of Deoxypreussomerin A and Palmarumycin CP 1 and related naphthoquinone spiroketals. Tetrahedron 57:283-296, 2001 and Vogt A, Rice RL, Settineri CE, Yokokawa F, Yokokawa S, Wipf P and Lazo JS (1998) Disruption of insulin-like growth factor-I signaling and down-regulation of Cdc2 by SC-ααδ9, a novel small molecule antisignaling agent identified in a targeted array library. J Pharmacol Exptl Therap 287:806-813.). Briefly, the inventors seeded 4,000-6,000 cells per well in microtiter plates. Cells were allowed to attach overnight and treated with vehicle or compounds for 72 h, after which the medium was replaced with serum free medium containing 0.1% 3-[4,5-dimethylthiazol-2-yl]-2,5-diphenyl tetrazolium bromide. Plates were incubated for 3 hours in the dark and total cell number was determined by spectrophotometrically at 540 nm as previously described (Vogt A, Rice RL, Settineri CE, Yokokawa F, Yokokawa S, Wipf P and Lazo JS (1998) Disruption of insulin-like growth factor-1 signaling and down-regulation of Cdc2 by SC-ααδ9, a novel small molecule antisignaling agent identified in a targeted array library. J Pharmacol Exptl Therap 287:806-813.). […] Cells were maintained in RPMI 1640 medium containing 10% fetal bovine serum and the paclitaxel-resistant cells also contained 17 nM paclitaxel and 10 μM verapamil. […] The number of cells was determined spectrophotometrically at 490 nm minus absorbance at 630 nm after exposure to 3-(4,5-dimethylthiazol-2-yl)-5-(3-carboxymethoxyphenyl)-2-(4-sulfophenyl)-2H-tetrazolium and N-methyldibenzopyurazine methyl sulfate. […]

VHR = VHR (Homo sapiens, UniProt P51452); test: In vitro inhibition of VHR; format: biochemical; conditions: 30 μM, data not shown
bovine brain tubulin [3] = test: Inhibition of [3H]colchicine binding; conditions: 5 μM compound; Mean ± SEM, N = 9
Procedure: Using methods described previously (Verdier-Pinard P, Lai J-Y, Yoo H-D, Yu J, Marquez B, Nagle DG, Nambu M, White JD, Falck JR, Gerwick WH, Day BW and Hamel E (1998) Structure-activity analysis of the interaction of curacin A, the potent colchicine site antimitotic agent, with tubulin and effects of analogs on the growth of MCF-7 breast cancer cells. Mol Phannacol 53:62-76.). 5,μM [^3H]colchicine was incubated with either 5% DMSO vehicle or compound (5 or 50 μM) at 37° C. for 15 min with 1 μM tubulin in the presence of 1 M monosodium glutamate, 0.1 M glucose-1-phosphate, 1 mM MgCl2, 1 mM GTP and 0.5 mg/ml bovine serum albumin. The solutions were filtered through two stacks of DEAE-cellulose filters and the radioactivity in the filtrate was determined by liquid scintillation spectrometry. Each series of determinations included positive controls of 5 and 50 μM curacin A. The inventors found no evidence that SR-7 could bind to the colchicine site of tubulin. […] The inventors propose that SR-7 may act at another site such as the previously characterized vinca alkaloid site.

Sequence of VHR (P51452 whole entry, species assumed): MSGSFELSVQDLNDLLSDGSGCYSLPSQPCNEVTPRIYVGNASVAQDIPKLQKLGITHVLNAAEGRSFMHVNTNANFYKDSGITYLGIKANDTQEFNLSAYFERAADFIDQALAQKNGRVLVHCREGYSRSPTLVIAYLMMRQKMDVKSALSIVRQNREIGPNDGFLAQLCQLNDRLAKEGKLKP

| Structure (SMILES) | inhibition of tubulin assembly (bovine brain tubulin [1]) | IC50 [2] | inhibition of VHR activity (VHR) | Percent inhibition of [3H]colchicine binding (bovine brain tubulin [3]) |
| --- | --- | --- | --- | --- |
| O=C1C=CC2(Oc3cccc4cccc(c34)O2)c2cccc(OCc3ccco3)c21 [SR-7, 8-(furan-2-ylmethoxy)-1-oxo-1,4-dihydronaphthalene-4-spiro-2′-naphto [1″,8″-de][1′,3′] dioxin] | only moderate inhibition of tubulin assembly | 3000 nM | no inhibition | 1.5 ± 0.5% |
| O=C1C=CC2(Oc3cccc4cccc(c34)O2)c2cccc(O)c21 [palmarumycin CP1, 8-hydroxy-1-oxo-1,4-dihydronaphthalene-4-spiro-2′-naphtho[1″,8″-de] [1′,3′] dioxin, reference compound] | – | 3000 nM | – | – |
